In patent US9914722B2, “Compounds for treating spinal muscular atrophy” (PTC Therapeutics Inc., priority 2012, dated 2018):

Columns and labels:
[1] = test system: full length SMN2 minigene mRNA containing SMN2 exon 7 (SMN2-A minigene); test: SMN2 minigene mRNA splicing RT-qPCR assay in cultured cells; format: cell-based, human; conditions: for SMN2 minigene FL mRNA relative to vehicle / SMN2 minigene alternative splicing / exon 7 inclusion: HEK293H cells with SMN2-A minigene, 24 hr, RT-qPCR, FIG. 3; for EC (1.5-fold): Homo sapiens, HEK293-H, HEK293H cells stably transfected with SMN2-A minigene, 24 hours, 7-point concentration curve, concentration giving 1.5-fold SMN2 full length mRNA vs vehicle, read-out: EC1.5x for production of full length SMN2 mRNA
Summary of the method: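 HEK293H cells stably carrying the SMN2-A minigene were treated 24 h at 37 °C with a 7-point, 3.16-fold test compound series, in duplicate. Multiplex RT-qPCR measured exon 7-containing minigene FL mRNA, normalized to GAPDH and expressed relative to vehicle; EC1.5x is the concentration giving 1.5-fold FL mRNA.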

Row | melting point [°C] | SMILES | SMN2 minigene FL mRNA relative to vehicle [1] | SMN2 minigene alternative splicing / exon 7 inclusion [1] | EC (1.5-fold) [1] [µM]
1 | 208 to 210 | C[C@@H]1CN(c2ccc3oc(-c4cn5ccccc5n4)cc(=O)c3c2)C[C@H](C)N1 [Cpd 17, 6-[(3R,5S)-3,5-dimethylpiperazin-1-yl]-2-(imidazo[1,2-a]pyridin-2-yl)-4H-chromen-4-one] | increased SMN2 minigene FL mRNA at low concentrations | correction of SMN2 minigene alternative splicing | 1 to 3
2 | 100 to 102 | COc1ccc(-c2cc(=O)c3cc(N4CCN[C@@H](C)C4)ccc3o2)cc1F [Cpd 38, 2-(3-fluoro-4-methoxyphenyl)-6-[(3S)-3-methylpiperazin-1-yl]-4H-chromen-4-one] | increased SMN2 minigene FL mRNA at low concentrations | correction of SMN2 minigene alternative splicing | ≤ 0.1
